Consider two compounds from US20250282746A1, “HALOGEN-SUBSTITUTED ISOINDOLINE COMPOUND AND USE THEREOF” (CHENGDU FENDI PHARMACEUTICAL CO., LTD., priority 2022, published 2025).

Like-named read-outs stand apart in the source and are kept apart here. Where only a bound is given, the exact number is not on record here.

Assay type in all cases: cell-based
One series deals with AML-2 cells. Briefly: Antiproliferative activity against various tumor cells: AML-2. The settings on record: 72 h, read-out: Antiproliferative activity IC50 AML-2.
For the next series, the system named is MV-4-11 cells. Briefly: Antiproliferative activity against MV-4-11 cells (CellTiter-Glo, 72 h). The settings on record: Homo sapiens. In outline: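 MV-4-11 cells in RPMI + 10% FBS plated at 5,000 cells/well and pre-incubated 24 h at 37 °C, 5% CO2. Compounds were then added (final DMSO 0.2%) and cells incubated 72 h. Viability was read by CellTiter-Glo luminescence after 30 min equilibration at room temperature.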

The test system of a further series is U937 cells. Description: Antiproliferative activity against various tumor cells: U937. To be noted: Homo sapiens, read-out: Antiproliferative activity IC50 U937.
For a further series, the target named is T1, hERG potassium channel (Homo sapiens, UniProt Q12809).
T1 construct: expressed in transfected cells; host or cells: HEK293 cells
Description: hERG inhibition assay (automated patch clamp, HEK293). To be noted: 3 μM, HEK293 cells, QPatch. From the text:
The rapidly activating potassium channel encoded by human ether-a-go-go-related gene (hERG) is an important ion channel involved in the formation of cardiac action potential phase 3 repolarization. Blocking of the hERG channel by drugs can lead to the prolongation of cardiac repolarization and thus a prolonged QT interval in the electrocardiogram, known as long QT syndrome. Drug-induced delayed ventricular repolarization may in some cases trigger fatal arrhythmia-torsade de pointes-type ventricular tachycardia.
This assay was used to measure the effect of compounds on the hERG potassium channel clones expressed in human embryonic kidney (HEK293) cells. The assay procedures are as follows: the cells were transferred into a HEPES-buffered saline in glass-lined 96-well plates and exposed to an appropriate amount of test compound or control solution at various concentrations for 3 min. The test compounds were diluted in 0.3% DMSO.
In general terms: hERG is a cardiac potassium channel; its block is linked to QT prolongation.

A further series deals with T2, CK1α (Homo sapiens, UniProt P48729).
T2 construct: The whole cell lysate was prepared using a RIPA lysis buffer; endogenous in cells; host or cells: HL-60 cells
Briefly: Degradation of CK1α protein in HL-60 cells (Western blot). To be noted: 4 h. The protocol:
(§1) […] of DMSO and the compounds were added, and the mixture was incubated in an incubator at 5% CO2 and 37° C. for 4 h. The cells were centrifuged, and the culture medium was discarded. PBS was added for washing and then discarded. The whole cell lysate was prepared using a RIPA lysis buffer containing a protease inhibitor cocktail and a phosphatase inhibitor, and incubated on ice for 30 min. The mixture was centrifuged, and the cell debris was discarded. The whole cell lysate supernatant was collected and transferred to a fresh EP tube. Samples were prepared using a loading buffer after a BCA protein assay. The samples were incubated in a metal bath at 100° C. for 10 min. The samples were electrophoretically separated from proteins on a 4-20% precast gel (SDS-PAGE gel), transferred to a PVDF membrane, blocked with 5% NFDM/TBST for 1 h at room temperature, co-incubated overnight at 4° C. with the primary antibody, and co-incubated for 2 h at room temperature with the secondary antibody on the next day. The signals were detected on the […]™ imaging system.

For a further series, the target named is T3, IKZF3 (Homo sapiens, UniProt Q9UKT9).
T3 construct: The whole cell lysate was prepared using a RIPA lysis buffer; endogenous in cells; host or cells: HL-60 cells
Briefly: Degradation of IKZF3 protein in HL-60 cells (Western blot). To be noted: 4 h. On the procedure: as §1

For the next series, the target named is T4, c-Myc (Homo sapiens, UniProt P01106).
T4 construct: The whole cell lysate was prepared using a RIPA lysis buffer; endogenous in cells; host or cells: HL-60 cells
Description: Degradation of c-MYC protein in HL-60 cells (Western blot). The settings on record: 4 h. On the procedure: as §1
Background: Immunoblotting shows a protein as a band on a membrane.

The subject of another series is MOLM-13 cells. Briefly: Antiproliferative activity against various tumor cells: MOLM-13. The settings on record: Homo sapiens, read-out: Antiproliferative activity IC50 MOLM-13.
A further series relates to NCI-H929 cells. Description: Antiproliferative activity against various tumor cells: NCI-H929. To be noted: Homo sapiens, read-out: Antiproliferative activity IC50 NCI-H929.
The target in the next series is T5, GSPT1 protein (Homo sapiens, UniProt P15170).
T5 construct: The whole cell lysate was prepared using a RIPA lysis buffer; endogenous in cells; host or cells: NB-4 cells
Description: Degradation of GSPT1 protein in NB-4 cells (Western blot). The settings on record: for inhibition at 1 µM: read-out: GSPT1 degradation. In outline:
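NB-4 cells treated with compounds at 1 μM for 6 h at 37 °C, 5% CO2, with DMSO control. RIPA whole-cell lysates, BCA-normalized, were run on 4-20% SDS-PAGE and immunoblotted for GSPT1 protein.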

T2 sequence (P48729 whole entry): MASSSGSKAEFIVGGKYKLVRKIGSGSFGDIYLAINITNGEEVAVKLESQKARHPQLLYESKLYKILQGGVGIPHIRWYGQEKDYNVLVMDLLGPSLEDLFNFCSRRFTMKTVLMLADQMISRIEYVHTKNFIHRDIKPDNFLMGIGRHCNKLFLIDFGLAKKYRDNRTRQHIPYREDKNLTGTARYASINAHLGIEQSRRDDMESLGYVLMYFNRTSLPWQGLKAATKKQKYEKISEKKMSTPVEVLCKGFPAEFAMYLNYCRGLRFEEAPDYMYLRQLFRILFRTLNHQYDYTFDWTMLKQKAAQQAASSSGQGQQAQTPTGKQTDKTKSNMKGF
T5 sequence (P15170 whole entry): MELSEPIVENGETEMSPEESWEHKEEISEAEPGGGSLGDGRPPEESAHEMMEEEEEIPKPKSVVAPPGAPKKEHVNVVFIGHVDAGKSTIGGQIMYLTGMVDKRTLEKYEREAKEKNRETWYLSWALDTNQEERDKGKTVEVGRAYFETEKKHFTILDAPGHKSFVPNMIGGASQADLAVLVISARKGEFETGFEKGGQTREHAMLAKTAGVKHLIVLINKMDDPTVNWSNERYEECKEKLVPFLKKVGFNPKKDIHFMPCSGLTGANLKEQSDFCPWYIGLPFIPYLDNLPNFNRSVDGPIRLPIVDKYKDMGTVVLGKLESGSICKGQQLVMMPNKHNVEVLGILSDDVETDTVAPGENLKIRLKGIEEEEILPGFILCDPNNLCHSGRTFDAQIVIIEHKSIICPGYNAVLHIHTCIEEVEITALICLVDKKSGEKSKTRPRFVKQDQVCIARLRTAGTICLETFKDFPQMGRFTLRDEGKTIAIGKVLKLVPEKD
T4 sequence (P01106 whole entry): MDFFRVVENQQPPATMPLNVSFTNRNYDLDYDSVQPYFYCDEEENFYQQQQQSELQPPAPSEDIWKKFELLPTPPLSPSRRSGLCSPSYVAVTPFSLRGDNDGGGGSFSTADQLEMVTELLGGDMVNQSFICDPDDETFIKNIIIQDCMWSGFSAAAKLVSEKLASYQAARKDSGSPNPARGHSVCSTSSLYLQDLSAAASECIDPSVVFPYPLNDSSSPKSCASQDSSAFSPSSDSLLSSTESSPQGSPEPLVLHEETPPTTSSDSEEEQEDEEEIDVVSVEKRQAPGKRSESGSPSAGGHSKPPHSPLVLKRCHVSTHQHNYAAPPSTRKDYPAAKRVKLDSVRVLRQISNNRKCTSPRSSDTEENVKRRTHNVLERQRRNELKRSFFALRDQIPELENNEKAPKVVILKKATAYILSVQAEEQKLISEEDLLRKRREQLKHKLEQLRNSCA
T3 sequence (Q9UKT9 whole entry): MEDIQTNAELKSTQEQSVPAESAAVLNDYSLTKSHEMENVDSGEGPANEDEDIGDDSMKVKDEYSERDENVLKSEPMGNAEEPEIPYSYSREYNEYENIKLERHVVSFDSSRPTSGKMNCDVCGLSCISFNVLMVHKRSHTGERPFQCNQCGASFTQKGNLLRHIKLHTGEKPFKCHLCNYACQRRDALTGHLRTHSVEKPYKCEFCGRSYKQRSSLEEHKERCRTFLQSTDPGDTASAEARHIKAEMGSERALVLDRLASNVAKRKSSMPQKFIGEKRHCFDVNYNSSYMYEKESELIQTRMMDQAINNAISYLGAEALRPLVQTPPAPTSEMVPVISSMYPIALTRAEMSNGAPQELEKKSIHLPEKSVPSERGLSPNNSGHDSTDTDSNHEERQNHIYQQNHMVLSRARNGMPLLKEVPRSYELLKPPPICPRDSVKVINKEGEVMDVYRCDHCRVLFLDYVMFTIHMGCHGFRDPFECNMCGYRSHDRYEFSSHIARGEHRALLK
T1 sequence (Q12809 whole entry): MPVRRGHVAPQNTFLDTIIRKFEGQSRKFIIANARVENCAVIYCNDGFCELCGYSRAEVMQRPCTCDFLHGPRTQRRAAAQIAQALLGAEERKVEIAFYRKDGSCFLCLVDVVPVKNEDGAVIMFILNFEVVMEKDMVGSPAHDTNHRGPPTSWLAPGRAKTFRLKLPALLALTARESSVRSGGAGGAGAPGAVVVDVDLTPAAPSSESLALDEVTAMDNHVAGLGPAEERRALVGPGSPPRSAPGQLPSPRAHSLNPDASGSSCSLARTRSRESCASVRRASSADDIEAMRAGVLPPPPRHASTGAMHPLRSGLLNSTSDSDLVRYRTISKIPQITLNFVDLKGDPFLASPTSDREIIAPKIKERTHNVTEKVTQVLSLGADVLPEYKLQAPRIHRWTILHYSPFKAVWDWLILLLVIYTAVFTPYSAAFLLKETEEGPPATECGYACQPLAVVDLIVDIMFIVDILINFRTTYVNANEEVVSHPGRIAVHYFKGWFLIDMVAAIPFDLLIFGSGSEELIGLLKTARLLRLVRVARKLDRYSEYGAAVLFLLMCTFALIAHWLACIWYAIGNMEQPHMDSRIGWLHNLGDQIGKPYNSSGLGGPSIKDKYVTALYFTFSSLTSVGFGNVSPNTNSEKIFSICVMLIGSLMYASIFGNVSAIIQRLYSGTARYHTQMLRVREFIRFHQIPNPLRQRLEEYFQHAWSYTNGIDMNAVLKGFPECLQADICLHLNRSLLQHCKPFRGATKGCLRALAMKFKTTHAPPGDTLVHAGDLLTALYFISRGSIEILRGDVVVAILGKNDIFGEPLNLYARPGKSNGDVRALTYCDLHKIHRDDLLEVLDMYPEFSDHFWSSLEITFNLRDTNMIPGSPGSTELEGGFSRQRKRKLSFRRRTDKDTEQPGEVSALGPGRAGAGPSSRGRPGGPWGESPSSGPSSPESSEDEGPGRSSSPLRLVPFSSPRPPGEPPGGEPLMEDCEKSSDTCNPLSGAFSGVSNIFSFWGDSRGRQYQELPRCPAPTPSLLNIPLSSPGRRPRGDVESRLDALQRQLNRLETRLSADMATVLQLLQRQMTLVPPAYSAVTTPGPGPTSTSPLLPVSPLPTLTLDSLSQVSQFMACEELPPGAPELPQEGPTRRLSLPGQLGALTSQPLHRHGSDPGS

In the case of `Cc1ccc(C(=O)NCc2ccc3c(c2F)CN(C2CCC(=O)NC2=O)C3=O)c(F)c1` (stereo not shown) [FDAB-121], the IC50 fell in the range of 10 to 100 nM in the series on AML-2 cells (AML-2 cells); 1 to 10 nM with MV-4-11 cells (MV4-11, MV-4-11 cells, 72 h, read-out: Antiproliferative activity IC50); 10 to 100 nM with U937 cells (U-937, U937 cells, 72 h); 10 to 100 nM with MOLM-13 cells (MOLM-13 cells, 72 h); 1 to 10 nM in the series on NCI-H929 cells (NCI-H929 cells, 72 h). Besides, on hERG potassium channel, the hERG inhibition rate is 9%. The CK1α degradation result at CK1α (10 nM) was “D (D denotes a percentage of degradation less than 25%)”; at CK1α (100 nM), “D (D denotes a percentage of degradation less than 25%)”; on CK1α (1000 nM) it was “C (C denotes a percentage of degradation less than 500% but not less than 250%)”. The IKZF3 degradation result at IKZF3 (10 nM) is on record as “D (D denotes a percentage of degradation less than 25%)”; at IKZF3 (100 nM), “B (B denotes a percentage of degradation less than 800% but not less than 500%)”; at IKZF3 (1000 nM), “B (B denotes a percentage of degradation less than 800% but not less than 500%)”. In addition, the c-Myc degradation entry on c-Myc (10 nM), at c-Myc (100 nM) and on c-Myc (1000 nM) was “D (D denotes a percentage of degradation less than 25%)” each time. In addition, the inhibition at 1 µM at GSPT1 protein (NB-4 cells, compound 1 μM, 6 h) was more than 80%.

`O=C1CCC(N2Cc3c(ccc(CNC(=O)c4ccc(Cl)cc4)c3F)C2=O)C(=O)N1` (stereo not shown) [FDAB-48]: the IC50 is 100 to 1000 nM in the series with AML-2 cells; 10 to 100 nM with MV-4-11 cells (MV4-11, 72 h, read-out: Antiproliferative activity IC50); 10.8 nM in the series with MV-4-11 cells (MV4-11, read-out: IC50 against MV-4-11 cell proliferation); 10 to 100 nM in the series with U937 cells (U-937, 72 h); 10 to 100 nM in the series with MOLM-13 cells (MOLM-13, 72 h); 1 to 10 nM in the series on NCI-H929 cells (NCI-H929, 72 h). In addition, on hERG potassium channel, the hERG inhibition rate is 25%. Besides, the CK1α degradation result on CK1α (10 nM), on CK1α (100 nM) and at CK1α (1000 nM) was “D (D denotes a percentage of degradation less than 25%)” in each case. Besides, the values for the IKZF3 degradation result on IKZF3 (10 nM), at IKZF3 (100 nM) and at IKZF3 (1000 nM) were “C (C denotes a percentage of degradation less than 500% but not less than 250%)”, “B (B denotes a percentage of degradation less than 800% but not less than 500%)” and “A (A denotes a percentage of GSPT1 protein degradation not less than 8000)”, respectively. The c-Myc degradation entry at c-Myc (10 nM) is “D (D denotes a percentage of degradation less than 25%)”; at c-Myc (100 nM) it was “D (D denotes a percentage of degradation less than 25%)”; at c-Myc (1000 nM), “C (C denotes a percentage of degradation less than 500% but not less than 250%)”. Moreover, the inhibition at 1 µM at GSPT1 protein (NB-4, 6 h) was more than 80%. Further, the “degradation of GSPT1 protein” value at GSPT1 protein (co-incubated for 6 h with NB-4 cells) amounted to 88%.
